A word on the mortality: it is the percentage killed.

The test system of this assay is Plutella xylostella. The experiment in a line: Plutella xylostella, leaf dip method. The class given is in vivo. To be noted: foliar, cabbage leaf dip, second instar larvae, 72 h after release, dead + moribund vs untreated control, read-out: percent mortality. The method, then:
The leaf dip method was used for testing, wherein the required quantity of the compound was weighed and dissolved in a tube containing solvent solution. The tube was put on a vortex at 2000 rpm for 90 min for proper mixing, then diluted with 0.01% Triton-X solution to get the desired test concentration. Cabbage leaves were dipped in the compound solution for 10 seconds, shade dried for 20 min and then transferred into the cells of bioassay trays. A single second instar larva was released into each cell and the tray was covered with a lid. The bio-assay trays were then kept under laboratory conditions at a temperature of 25° C. and a relative humidity of 70%. Observations on dead, moribund and alive larvae were recorded 72 h after the release. Percent mortality was calculated by combining dead and moribund larvae and comparing the result to the one of the untreated control.
For the compound `CCS(=O)(=O)c1cc(-n2cncn2)cnc1-c1ccn2nc(C(F)(F)F)nc2n1` [Compound 146, 5-(3-(ethylsulfonyl)-5-(1H-1,2,4-triazol-1-yl)pyridin-2-yl)-2-(trifluoromethyl)-[1,2,4]triazolo[1,5-a]pyrimidine], the mortality at 300 ppm is no less than 70%.
For `CCS(=O)(=O)c1ccc(-n2nc3ccc(C(F)(F)F)cn3c2=O)nc1-c1ccn2nc(C(F)(F)F)cc2n1` [Compound 27, 2-(5-(ethylsulfonyl)-6-(2-(trifluoromethyl)pyrazolo[1,5-a]pyrimidin-5-yl)pyridin-2-yl)-6-(trifluoromethyl)-[1,2,4]triazolo[4,3-a]pyridin-3(2H)-one], the mortality at 300 ppm is no less than 70%.
As for `CCS(=O)(=O)c1ccc(C2CC2)nc1-c1ccn2nc(C(F)(F)F)nc2n1` [Compound 180, 5-(6-cyclopropyl-3-(ethylsulfonyl)pyridin-2-yl)-2-(trifluoromethyl)-[1,2,4]triazolo[1,5-a]pyrimidine], the mortality at 300 ppm is no less than 70%.
Consider `CCS(=O)(=O)c1ccc(OC2CSC2)nc1-c1ccn2nc(C(F)(F)F)cc2n1` [Compound 243, 5-(3-(ethylsulfonyl)-6-(thietan-3-yloxy)pyridin-2-yl)-2-(trifluoromethyl)pyrazolo[1,5-a]pyrimidine], for which the mortality at 300 ppm was no less than 70%.
For `CCS(=O)(=O)c1ccc(N2CCn3c(nnc3C(F)(F)F)C2)nc1-c1ccn2nc(C(F)(F)F)cc2n1` [Compound 6, 7-(5-(ethylsulfonyl)-6-(2-(trifluoromethyl)pyrazolo[1,5-a]pyrimidin-5-yl)pyridin-2-yl)-3-(trifluoromethyl)-5,6,7,8-tetrahydro-[1,2,4]triazolo[4,3-a]pyrazine], the mortality at 300 ppm is no less than 70%.
For the compound `CCS(=O)(=O)c1cc(-c2cccc(C(F)(F)F)c2)cnc1-c1ncc2nc(C(F)(F)F)n(C)c2n1` [Compound 117, 2-(3-(ethylsulfonyl)-5-(3-(trifluoromethyl)phenyl)pyridin-2-yl)-9-methyl-8-(trifluoromethyl)-9H-purine], the mortality at 300 ppm was no less than 70%.
For the compound `CCSc1ccc(C)nc1-c1ccn2nc(C(F)(F)F)nc2n1` [Compound 187, 5-(3-(ethylthio)-6-methylpyridin-2-yl)-2-(trifluoromethyl)-[1,2,4]triazolo[1,5-a]pyrimidine], the mortality at 300 ppm is no less than 70%.
On to `CCS(=O)(=O)c1ccc(-c2cccc(C#N)c2)nc1-c1ccn2nc(C(F)(F)F)cc2n1` [Compound 23, 3-(5-(ethylsulfonyl)-6-(2-(trifluoromethyl)pyrazolo[1,5-a]pyrimidin-5-yl)pyridin-2-yl)benzonitrile], for which the mortality at 300 ppm is no less than 70%.
Next, `CCc1cnc(-c2ccn3nc(C(F)(F)F)cc3n2)c(S(=O)(=O)CC)c1` [Compound 211, 5-(5-ethyl-3-(ethylsulfonyl)pyridin-2-yl)-2-(trifluoromethyl)pyrazolo[1,5-a]pyrimidine]: no less than 70%.
For `CCOc1ccc(S(=O)(=O)CC)c(-c2ccn3nc(C(F)(F)F)cc3n2)n1` [Compound 227, 5-(6-ethoxy-3-(ethylsulfonyl)pyridin-2-yl)-2-(trifluoromethyl)pyrazolo[1,5-a]pyrimidine], the mortality at 300 ppm was no less than 70%.
As to `CCS(=O)(=O)c1cc(-c2cc(Cl)cc(Cl)c2)cnc1-c1ncc2nc(C(F)(F)F)n(C)c2n1` [Compound 128, 2-(5-(3,5-dichlorophenyl)-3-(ethylsulfonyl)pyridin-2-yl)-9-methyl-8-(trifluoromethyl)-9H-purine], the mortality at 300 ppm is no less than 70%.
For the compound `CCSc1cc(-n2cncn2)cnc1-c1ccn2nc(C(F)(F)F)cc2n1` [Compound 32, 5-(3-(ethylthio)-5-(1H-1,2,4-triazol-1-yl)pyridin-2-yl)-2-(trifluoromethyl)pyrazolo[1,5-a]pyrimidine], the mortality at 300 ppm is no less than 70%.
With `CCS(=O)(=O)c1ccc(CC#N)nc1-c1ccn2nc(C(F)(F)F)cc2n1` [Compound 217, 2-(5-(ethylsulfonyl)-6-(2-(trifluoromethyl)pyrazolo[1,5-a]pyrimidin-5-yl)pyridin-2-yl)acetonitrile], the mortality at 300 ppm is no less than 70%.
Turning to `CCS(=O)(=O)c1ccc(OCC(F)(F)F)nc1-c1ccn2nc(C(F)(F)F)cc2n1` [Compound 239, 5-(3-(ethylsulfonyl)-6-(2,2,2-trifluoroethoxy)pyridin-2-yl)-2-(trifluoromethyl)pyrazolo[1,5-a]pyrimidine], the mortality at 300 ppm was no less than 70%.
For `CCS(=O)(=O)c1ccc(-c2ccccc2)nc1-c1ccn2nc(C(F)(F)F)cc2n1` [Compound 15, 5-(3-(ethylsulfonyl)-6-phenylpyridin-2-yl)-2-(trifluoromethyl)pyrazolo[1,5-a]pyrimidine], the mortality at 300 ppm is no less than 70%.
For the compound `CCS(=O)(=O)c1cc(-c2cncnc2)cnc1-c1ccn2nc(C(F)(F)F)cc2n1` [Compound 95, 5-(3-(ethylsulfonyl)-5-(pyrimidin-5-yl)pyridin-2-yl)-2-(trifluoromethyl)pyrazolo[1,5-a]pyrimidine], the mortality at 300 ppm is no less than 70%.
Take `CCS(=O)(=O)c1cc(-c2cncnc2)cnc1-c1ccn2nc(C(F)(F)F)nc2n1` [Compound 135, 5-(3-(ethylsulfonyl)-5-(pyrimidin-5-yl)pyridin-2-yl)-2-(trifluoromethyl)-[1,2,4]triazolo[1,5-a]pyrimidine]: the mortality at 300 ppm was no less than 70%.
Regarding `CCS(=O)(=O)c1cc(-c2ccc(OC(F)(F)C(F)F)cc2)cnc1-c1ccn2nc(C(F)(F)F)nc2n1` [Compound 104, 5-(3-(ethylsulfonyl)-5-(4-(1,1,2,2-tetrafluoroethoxy)phenyl)pyridin-2-yl)-2-(trifluoromethyl)-[1,2,4]triazolo[1,5-a]pyrimidine], the mortality at 300 ppm is no less than 70%.
For `CCS(=O)(=O)c1ccc(-n2cncn2)nc1-c1cnc2cc(C(F)(F)F)nn2c1` [Compound 54, 6-(3-(ethylsulfonyl)-6-(1H-1,2,4-triazol-1-yl)pyridin-2-yl)-2-(trifluoromethyl)pyrazolo[1,5-a]pyrimidine], the mortality at 300 ppm was no less than 70%.
For `CCS(=O)(=O)c1cc(-c2cc(Cl)cc(Cl)c2)cnc1-c1ccn2nc(C(F)(F)F)nc2n1` [Compound 102, 5-(5-(3,5-dichlorophenyl)-3-(ethylsulfonyl)pyridin-2-yl)-2-(trifluoromethyl)-[1,2,4]triazolo[1,5-a]pyrimidine], the mortality at 300 ppm was no less than 70%.
Turning to `CCS(=O)(=O)c1ccc(-c2ccc(C#N)cc2)nc1-c1ccn2nc(C(F)(F)F)cc2n1` [Compound 18, 4-(5-(ethylsulfonyl)-6-(2-(trifluoromethyl)pyrazolo[1,5-a]pyrimidin-5-yl)pyridin-2-yl)benzonitrile], the mortality at 300 ppm was no less than 70%.
In the case of `CCSc1cc(-c2ccnn2C)cnc1-c1ccn2nc(C(F)(F)F)cc2n1` [Compound 67, 5-(3-(ethylthio)-5-(1-methyl-1H-pyrazol-5-yl)pyridin-2-yl)-2-(trifluoromethyl)pyrazolo[1,5-a]pyrimidine] it was no less than 70%.
Take `CCS(=O)(=O)c1cc(-n2cnc(C)n2)cnc1-c1ccn2nc(C(F)(F)F)cc2n1` [Compound 69, 5-(3-(ethylsulfonyl)-5-(3-methyl-1H-1,2,4-triazol-1-yl)pyridin-2-yl)-2-(trifluoromethyl)pyrazolo[1,5-a]pyrimidine]: the mortality at 300 ppm was no less than 70%.

The values are drawn from patent publication US12514251B2, “Fused heterocyclic compounds and their use as pest control agents” (priority 2020, dated 2026).
